# Laboratory results from PubChem BioAssay AID1963975 (Molecular Pharmacology Branch, DTP, NCI, 2024).
# System: 624824-186-R-J2-PDC multicell spheroids, viability
# Assay: Anticancer human tumor 624824-186-R-J2-PDC patient-derived colon adenocarcinoma cell line growth inhibition [PI3K]
# Conditions: for IC50: curve of first compound; for viability, T/C: stronger effect = lower value
# Procedure, shortened: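 Three cell types, namely tumor cells, endothelial cells and mesenchymal stem cells, formed each spheroid. Combinations with four PI3K inhibitors were screened at clinically achievable concentrations decreasing by half-log, and spheroid viability was recorded.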
# [1] = second compound 0.0316 µM, first compound 0.000316 µM
# [2] = second compound 0.0316 µM, first compound 0.001 µM
# [3] = second compound 0.0316 µM, first compound 0.00316 µM
# [4] = second compound 0.0316 µM, first compound 0.01 µM
# [5] = second compound 0.0316 µM, first compound 0.0316 µM
# [6] = second compound 0.0316 µM, first compound 0.1 µM
# [7] = second compound 0.1 µM, first compound 0.000316 µM
# [8] = second compound 0.1 µM, first compound 0.001 µM
# [9] = second compound 0.1 µM, first compound 0.00316 µM
# [10] = second compound 0.1 µM, first compound 0.01 µM
# [11] = second compound 0.1 µM, first compound 0.0316 µM
# [12] = second compound 0.1 µM, first compound 0.1 µM
# [13] = second compound 0.316 µM, first compound 0.000316 µM
# [14] = second compound 0.316 µM, first compound 0.001 µM
# [15] = second compound 0.316 µM, first compound 0.00316 µM
# [16] = second compound 0.316 µM, first compound 0.01 µM
# [17] = second compound 0.316 µM, first compound 0.0316 µM
# [18] = second compound 0.316 µM, first compound 0.1 µM
# [19] = second compound 1 µM, first compound 0.000316 µM
# [20] = second compound 1 µM, first compound 0.001 µM
# [21] = second compound 1 µM, first compound 0.00316 µM
# [22] = second compound 1 µM, first compound 0.01 µM
# [23] = second compound 1 µM, first compound 0.0316 µM
# [24] = second compound 1 µM, first compound 0.1 µM
# [25] = second compound 3.16 µM, first compound 0.000316 µM
# [26] = second compound 3.16 µM, first compound 0.001 µM
# [27] = second compound 3.16 µM, first compound 0.00316 µM
# [28] = second compound 3.16 µM, first compound 0.01 µM
# [29] = second compound 3.16 µM, first compound 0.0316 µM
# [30] = second compound 3.16 µM, first compound 0.1 µM
# [31] = second compound 10 µM, first compound 0.000316 µM
# [32] = second compound 10 µM, first compound 0.001 µM
# [33] = second compound 10 µM, first compound 0.00316 µM
# [34] = second compound 10 µM, first compound 0.01 µM
# [35] = second compound 10 µM, first compound 0.0316 µM
# [36] = second compound 10 µM, first compound 0.1 µM
# 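Further: spheroids exposed to agents for 7 days before viability read.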
# 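Wherever viability, T/C is given: 100% = DMSO vehicle treated spheroids.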
structure (smiles),measurement,setting,value
CC(=O)c1c(C)c2cnc(Nc3ccc(N4CCNCC4)cn3)nc2n(C2CCCC2)c1=O + Cc1nc(NC(=O)N2CCCC2C(N)=O)sc1-c1ccnc(C(C)(C)C(F)(F)F)c1,IC50,second compound 0.0316 µM,> 100 nM
same,IC50,second compound 0.1 µM,> 100 nM
same,IC50,second compound 0.316 µM,> 100 nM
same,IC50,second compound 1 µM,> 100 nM
same,IC50,second compound 3.16 µM,> 100 nM
same,IC50,second compound 10 µM,> 100 nM
same,"viability, T/C",[1],81.6%
same,"viability, T/C",[2],72.8%
same,"viability, T/C",[3],83.6%
same,"viability, T/C",[4],79.2%
same,"viability, T/C",[5],74.1%
same,"viability, T/C",[6],82.8%
same,"viability, T/C",[7],98.2%
same,"viability, T/C",[8],105%
same,"viability, T/C",[9],93.6%
same,"viability, T/C",[10],75.9%
same,"viability, T/C",[11],91.4%
same,"viability, T/C",[12],76.2%
same,"viability, T/C",[13],89%
same,"viability, T/C",[14],80.6%
same,"viability, T/C",[15],85%
same,"viability, T/C",[16],97.4%
same,"viability, T/C",[17],88.3%
same,"viability, T/C",[18],88.7%
same,"viability, T/C",[19],96.3%
same,"viability, T/C",[20],78.9%
same,"viability, T/C",[21],88.5%
same,"viability, T/C",[22],87.2%
same,"viability, T/C",[23],82.5%
same,"viability, T/C",[24],77.2%
same,"viability, T/C",[25],80.9%
same,"viability, T/C",[26],83.6%
same,"viability, T/C",[27],91.1%
same,"viability, T/C",[28],80.7%
same,"viability, T/C",[29],85.1%
same,"viability, T/C",[30],75.1%
same,"viability, T/C",[31],73.8%
same,"viability, T/C",[32],67.5%
same,"viability, T/C",[33],72.1%
same,"viability, T/C",[34],75.9%
same,"viability, T/C",[35],66%
same,"viability, T/C",[36],56.9%
CC(C)n1nc(-c2ccc3oc(N)nc3c2)c2c(N)ncnc21 + Cc1nc(NC(=O)N2CCCC2C(N)=O)sc1-c1ccnc(C(C)(C)C(F)(F)F)c1,IC50,second compound 0.0316 µM,> 100 nM
same,IC50,second compound 0.1 µM,> 100 nM
same,IC50,second compound 0.316 µM,> 100 nM
same,IC50,second compound 1 µM,> 100 nM
same,IC50,second compound 3.16 µM,> 100 nM
same,IC50,second compound 10 µM,37.5 nM
same,"viability, T/C",[1],68.1%
same,"viability, T/C",[2],74%
same,"viability, T/C",[3],59.7%
same,"viability, T/C",[4],67.7%
same,"viability, T/C",[5],58.7%
same,"viability, T/C",[6],67.8%
same,"viability, T/C",[7],79.1%
same,"viability, T/C",[8],64.5%
same,"viability, T/C",[9],65.4%
same,"viability, T/C",[10],62.5%
same,"viability, T/C",[11],74%
same,"viability, T/C",[12],75%
same,"viability, T/C",[13],86.9%
same,"viability, T/C",[14],69%
same,"viability, T/C",[15],81.6%
same,"viability, T/C",[16],64.7%
same,"viability, T/C",[17],60.9%
same,"viability, T/C",[18],67.7%
same,"viability, T/C",[19],79.4%
same,"viability, T/C",[20],61.1%
same,"viability, T/C",[21],61%
same,"viability, T/C",[22],70.5%
same,"viability, T/C",[23],67.1%
same,"viability, T/C",[24],63.6%
same,"viability, T/C",[25],72.2%
same,"viability, T/C",[26],61.3%
same,"viability, T/C",[27],66.1%
same,"viability, T/C",[28],65.9%
same,"viability, T/C",[29],69.7%
same,"viability, T/C",[30],53.7%
same,"viability, T/C",[31],68.2%
same,"viability, T/C",[32],74%
same,"viability, T/C",[33],65.8%
same,"viability, T/C",[34],61.5%
same,"viability, T/C",[35],51.8%
same,"viability, T/C",[36],41.1%
CCCS(=O)(=O)Nc1ccc(F)c(C(=O)c2c[nH]c3ncc(-c4ccc(Cl)cc4)cc23)c1F + Cc1nc(NC(=O)N2CCCC2C(N)=O)sc1-c1ccnc(C(C)(C)C(F)(F)F)c1,IC50,second compound 0.0316 µM,> 10000 nM
same,IC50,second compound 0.1 µM,7110 nM
same,IC50,second compound 0.316 µM,6600 nM
same,IC50,second compound 1 µM,5130 nM
same,IC50,second compound 3.16 µM,1040 nM
same,IC50,second compound 10 µM,455 nM
same,"viability, T/C",[5],68%
same,"viability, T/C",[6],77.2%
same,"viability, T/C","second compound 0.0316 µM, first compound 0.316 µM",61.6%
same,"viability, T/C","second compound 0.0316 µM, first compound 1 µM",76.8%
same,"viability, T/C","second compound 0.0316 µM, first compound 3.16 µM",87.3%
same,"viability, T/C","second compound 0.0316 µM, first compound 10 µM",42.2%
same,"viability, T/C",[11],84%
same,"viability, T/C",[12],64.8%
same,"viability, T/C","second compound 0.1 µM, first compound 0.316 µM",61.2%
same,"viability, T/C","second compound 0.1 µM, first compound 1 µM",91.9%
same,"viability, T/C","second compound 0.1 µM, first compound 3.16 µM",96.5%
same,"viability, T/C","second compound 0.1 µM, first compound 10 µM",37.7%
same,"viability, T/C",[17],72.3%
same,"viability, T/C",[18],72.7%
same,"viability, T/C","second compound 0.316 µM, first compound 0.316 µM",53.8%
same,"viability, T/C","second compound 0.316 µM, first compound 1 µM",73.1%
same,"viability, T/C","second compound 0.316 µM, first compound 3.16 µM",78.1%
same,"viability, T/C","second compound 0.316 µM, first compound 10 µM",38.9%
same,"viability, T/C",[23],74.6%
same,"viability, T/C",[24],50.7%
same,"viability, T/C","second compound 1 µM, first compound 0.316 µM",54.4%
same,"viability, T/C","second compound 1 µM, first compound 1 µM",65.6%
same,"viability, T/C","second compound 1 µM, first compound 3.16 µM",75.9%
same,"viability, T/C","second compound 1 µM, first compound 10 µM",30.4%
same,"viability, T/C",[29],79.6%
same,"viability, T/C",[30],60.6%
same,"viability, T/C","second compound 3.16 µM, first compound 0.316 µM",56.4%
same,"viability, T/C","second compound 3.16 µM, first compound 1 µM",51.7%
same,"viability, T/C","second compound 3.16 µM, first compound 3.16 µM",52%
same,"viability, T/C","second compound 3.16 µM, first compound 10 µM",23.2%
same,"viability, T/C",[35],58.7%
same,"viability, T/C",[36],50%
same,"viability, T/C","second compound 10 µM, first compound 0.316 µM",49.9%
same,"viability, T/C","second compound 10 µM, first compound 1 µM",45.1%
same,"viability, T/C","second compound 10 µM, first compound 3.16 µM",41.1%
same,"viability, T/C","second compound 10 µM, first compound 10 µM",19%
